In US11426371B2, “Compositions and methods for treating cancer” (University of Virginia Patent Foundation, priority 2017, dated 2022):
Read-outs that look alike come from different tables or passages of the source.

Key:
[1] = test system: Human AML cell lines (n = 30); assay: Cell viability, average over the panel of AML cell lines; format: cell-based; conditions: mean over 30 human AML cell lines
Method: (§1) Representative human AML cell lines (FIG. 2A; upper and lower panels) HL60/VCR and (FIG. 2B; upper and lower panels) OCI-AML2 were treated with SACLAC for 24 and 48 hours. Viability was assessed by MTS assay at 24 and 48 hours and apoptosis was assessed by flow cytometry at 48 hours. Upper panels represent % viability and lower panels indicate % apoptosis.
Two representative human-derived AML cell lines, HL60/VCR and OCI-AML2, are shown. These studies have been expanded to a large panel of additional human AML cell lines (n=30, Table 1).

[2] = test system: AML cell lines (HL60/VCR, OCI-AML2, THP-1); assay: Viability of AML cell lines, MTS and Cell Titer Glo (FIGS. 2, 4, Table 2); format: cell-based, human; conditions: for EC50: Homo sapiens, 24 h
Method: as §1
(§2) AML cell lines and normal samples (PBMCs and/or CD34+ cells) were treated for 24 hours with SACLAC (FIG. 4A-7 cell lines) and similar AC inhibitor SABRAC (2-bromo-N-((2S,3R)-1,3-dihydroxyoctadecan-2-yl)acetamide) (FIG. 4B-four cell lines). Viability was assessed by MTS and Cell Titer Glo viability assays. EC50 values (FIG. 4C) were graphed to visualize fold-change between AML and normal cells with treatment of each compound. […] Cells tested for SABRAC were HL60/VCR and OCI-AML2 AML cell lines and two normal PBMC control samples (PBMC1 and PBMC2). The same four cell types were tested for SACLAC, as well as the AML cell line THP-1 and two normal CD34+ cell control samples (CD34+1 and CD34+2).
(§3) Next, we tested the toxicity of SACLAC and a similar published AC inhibitor SABRAC^17 to normal hematopoietic cells to ensure that AML cells are selectively targeted by the compound (FIG. 4A). […] This degree of selectivity was unexpected but extremely important for potential clinical use. […] This remarkable increase in selectivity is a surprising discovery that greatly exceeds the predicted similarity in compound behavior that one may expect with a simple substitution of one halogen for another (Cl for Br).

[3] = test system: normal samples (PBMCs and/or CD34+ cells); assay: Viability of normal samples, MTS and Cell Titer Glo (FIG. 4, Table 2); format: cell-based; conditions: PBMC
Method: as §2, §3

hAML cell lines = assay: Time course studies of apoptosis and mitochondrial membrane depolarization; format: cell-based, human
[4] = test system: S1P and ceramide in HL60/VCR and OCI-AML2; assay: Lipid metabolites by mass spectrometry in AML cell lines; format: cell-based, human; conditions: HL60/VCR and OCI-AML2, 24 hours
Method: Representative human AML cell lines (FIG. 3A; upper and lower panels) HL60/VCR and (FIG. 3B; upper and lower panels) OCI-AML2 were treated with SACLAC for 24 hours. Concentrations of lipid metabolites were determined by mass spectrometry. *, p<0.05; **, p<0.01 (Student's t-test). Upper panels represent Lipid in pmol/mg protein and lower panels represent Ceramide in pmol/mg protein.
We also characterized lipid changes in response to SACLAC treatment in order to provide further evidence of potent AC inhibition (FIGS. 3A-3B). […] Thus, the inhibitor blocks a common mechanism of ceramide detoxification in AML and is likely to provide therapeutic benefit by facilitating ceramide accumulation and apoptotic death of these proliferative cells.

[5] = test system: primary AML patient samples; assay: Apoptosis in primary AML patient cells; format: cell-based, human; conditions: 48 hours, nutrient- and growth factor-rich culture
Method: Multiple primary patient (Pt) AML cells were treated with various doses of SACLAC and assayed for apoptosis at 48 hours and colony formation over several days. […] The ordinate represents Colonies (as % of control) and the abscissa represents the concentration of SACLAC (μM). Unt=untreated; DMSO=dimethyl sulfoxide vehicle control.
Further, effects on patient samples strongly support the potential for clinical relevance of SACLAC. […] Based on the data presented here, we propose that use of SACLAC for treatment of AML is novel and clinically promising.

[6] = Maximum tolerated dose in vivo; conditions: preliminary results (not shown)
Method: Preliminary results (not shown) indicate a maximum tolerated dose in vivo of at least about 50 mg/kg body weight. Pharmacokinetic studies are in progress to measure any accumulation of SACLAC in the blood following treatment. Initial studies are based on doses of 20 or 40 mg/kg body weight.

[7] = SACLAC serum/blood levels after i.p. or i.v. administration; format: in vivo, mouse
Method: FIG. 7 graphically depicts SACLAC levels in mouse blood following administration intraperitoneally (i.p.) at 40 mg/kg body weight or intravenously (i.v.) at 5 mg/kg body weight. The ordinate represents Concentration (nM) and the abscissa Time (hours). DMSO (dimethyl sulfoxide) and β-HPCD (2-hydroxypropyl […]) represent the vehicle for SACLAC delivery.
Serum concentrations of SACLAC were also determined following administration. (see FIG. 7). […] SACLAC was dissolved in dimethyl sulfoxide (DMSO) or 2-hydroxypropyl-β-cyclodextrin (β-HPCD). Serum levels were determined following injection of free SACLAC (i.p.—in DMSO at 40 mg/kg; or i.v.—5 mg/kg in β-HPCD). […] They also show our ability to generate and characterize in vitro functionality by modifying delivery and delivery systems, monitor PK and evolve our approaches based on experimental results in order to maximize in vivo efficacy.

acid ceramidase (AC) = target: T1, acid ceramidase (AC) (Homo sapiens, UniProt Q13510); assay: AC inhibition in lysates from cells overexpressing the enzyme; format: biochemical; parameters: expressed in transfected cells
T1 sequence (Q13510 143-395 limits assumed): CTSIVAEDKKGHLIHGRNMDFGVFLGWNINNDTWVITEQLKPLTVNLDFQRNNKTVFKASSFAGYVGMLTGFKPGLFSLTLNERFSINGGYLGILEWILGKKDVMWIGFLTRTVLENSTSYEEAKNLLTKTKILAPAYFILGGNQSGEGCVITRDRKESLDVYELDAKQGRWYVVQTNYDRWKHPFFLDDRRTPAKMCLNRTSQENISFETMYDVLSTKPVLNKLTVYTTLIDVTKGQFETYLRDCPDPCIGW
T1 sequence (Q13510 22-142 limits assumed): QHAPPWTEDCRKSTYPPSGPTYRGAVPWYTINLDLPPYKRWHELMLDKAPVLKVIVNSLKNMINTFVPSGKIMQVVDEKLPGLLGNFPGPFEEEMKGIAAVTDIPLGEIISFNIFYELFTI

In the case of `CCCCCCCCCCCCCCC[C@@H](O)[C@H](CO)NC(=O)CCl` [SACLAC, 2-chloro-N-((2S,3R)-1,3-dihydroxyoctadecan-2-yl)acetamide], the EC50 ([1]; 24 h, read-out: EC50 24 h, Average) is reported as 2300 nM, the EC50 ([1]; 48 h, read-out: EC50 48 h, Average) is reported as 1900 nM and the viability ([2]; HL60/VCR and OCI-AML2, MTS, 24 and 48 hours, dose-dependent) is reported as “reduced viability”. For the same compound, the EC50 ([2]; mean of AML cell lines, 24 hours, read-out: EC50 AML) was 2270 nM, the EC50 ([2]; SACLAC: HL60/VCR, OCI-AML2, THP-1, SABRAC: HL60/VCR, OCI-AML2, order of cells not given, read-out: EC50, single AML cell lines (FIG. 4A, 4B)) was 2600 nM and the EC50 ([3]; 24 h, mean of normal samples (PBMCs and/or CD34+ cells), 24 hours, read-out: EC50 Normal) was 13400 nM. The EC50 ([3]; 24 h, normal controls at 24 h, mean ± spread, read-out: EC50, normal controls) was 13500 ± 7100 nM, the EC50 ([3]; n=10, read-out: mean EC50, normal PMBC and CD34+ controls) was 6000 nM and the “mitochondrial membrane potential, time course” value (hAML cell lines; concurrent with apoptosis induction) was “mitochondrial membrane depolarization”. The “apoptosis, time course” value (hAML cell lines; time course studies) was “apoptosis induction”, the S1P [4] was “significantly reduced S1P” and the ceramide [4] was “increased ceramide”. For the same compound, the apoptosis [5] was “effectively induced apoptosis”, the MTD [6] was no less than 50 mg/kg and the “uptake following i.p. injection” value ([7]; i.p. injection) was “suboptimal uptake”. For the same compound, the serum levels ([7]; i.p., 40 mg/kg in DMSO) was “low serum levels”, the serum levels ([7]; i.v., 5 mg/kg in β-HPCD, compared with i.p.) was “great improvement” and the IC50 (acid ceramidase (AC); irreversible binding to its binding site, read-out: IC50) was 46.7 nM. For the same compound, the IC50 (acid ceramidase (AC); lysates from cells overexpressing the enzyme, read-out: IC50, AC inhibition) was 46 nM.
